Several values for one entry are separate records, joined by “and”; a condition that tells them apart may be missing. Equal entries are not always repeated.
How the values were obtained:
[1] = target: T1, Recombinant Human TACE/ADAM17 (Homo sapiens, UniProt P78536); assay: Cell free TACE/ADAM17 activity; assay type: biochemical; conditions: cell-free assay; AAT Sigma Aldrich, batch A6150; read-out: IC50 of TACE activity inhibition
T1 construct: purchased R&D Systems 930-ADB-010
Method: TACE activity and its inhibition by human AAT (AAT) was performed with Recombinant Human TACE/ADAM17 kit (930-ADB and ES003, R&D Systems) in black 96-well immuno plates (437111, ThermoFisher Scientific). The enzymatic activity of TACE/ADAM17 was measured by mixing 0.005 μg of rhTACE with 10 μM of Mca-PLAQAV-Dpa-RSSSR-NH2 fluorogenic peptide substrate III in assay buffer (25 mM Tris, 2.5 μM ZnCl2, 0.005% Brij-35 (w/v), pH 9.0) to a final volume of 100 μl. AAT (Sigma Aldrich, batch A6150) was resuspended in water (vehicle), control TACE/ADAM17 activity was assessed in presence of the vehicle (amount used for AAT 100 μM). AAT was added at different concentration (0, 6.25, 12.5, 25, 50 and 100 μM) to assess its dose-dependent inhibition of TACE/ADAM17. All conditions were performed in triplicates. Activity was measured as relative fluorescent unit (RFU) in a kinetic mode (9 time points over 5 min) with a SpectraMax iD3 Microplate Reader (low PMT gain, is exposition, top read at 1 mm, wavelength: excitation 320 nm, emission 405 nm). Bar graph as percentage of control activity was obtained by averaging the values obtained over the 5 min for each of the condition.
TACE activity is assessed according to the manufacturer's instruction (Recombinant Human TACE/ADAM17 kit, 930-ADB, R&D Systems) in kinetic mode, without or with different AAT concentration. All conditions were done in triplicates and are shown as mean±SD (FIGS. 5A, 5B and 5C).
ADAM-17 activity and its inhibition by human peptide 8 was measured with Recombinant Human ADAM-17 kit (Recombinant Human TACE/ADAM17 Protein, CF: 930-ADB-010 and Mca-PLAQAV-Dpa-RSSSR-NH2 Fluorogenic Peptide Substrate:ES003; R&D Systems) in black 96-well immunoplates (437111; Thermo Fisher Scientific). The enzymatic activity of ADAM-17 was measured by mixing 0.005 μg of rhADAM-17 with 10 μM of Mca-PLAQAV-Dpa-RSSSR-NH2 fluorogenic peptide substrate III in assay buffer (25 mM Tris, 2.5 μM ZnCl2, 0.005% Brij-35 (w/v), pH 9.0) to a final volume of 100 μL. Peptide 8 (Syngene) was dissolved in DMSO and diluted to the desired concentration in assay buffer. Control ADAM-17 activity was assessed in the presence of the assay buffer. […] All conditions were performed in triplicate. Activity was measured as relative fluorescent units (RFU) in endpoint mode (5 min) with a SpectraMax iD3 Microplate Reader (automatic PMT gain, wavelengths: excitation 320 nm, emission 405 nm).

[2] = test system: CMT1A mice B6.Cg-Tg(PMP22)C3Fbas/J; assay: Rotarod latency to fall, CMT mice treated with AAT 180 mg/kg/day sc; assay type: in vivo, mouse
[3] = test system: C3-PMP22 transgenic mice (CMT1A); assay: Sciatic nerve electrophysiology (EMG), CMT1A mouse study (50 mg/kg twice daily); assay type: in vivo; conditions: for Compound muscle action potential (Mean ± SEM) / Nerve conduction velocity (Mean ± SEM): CMT1A + AAT; for Amplitude, MEAN / Amplitude, individual mice / Conduction velocity, MEAN / Conduction velocity, individual mice / T1 distal, individual mice / T2 proximal, individual mice: CMT1A + hAAT
Text: As a murine model of CMT1A we used C3-PMP22 transgenic mice (B6.Cg-Tg(PMP22)C3Fbas/J, The Jackson Laboratory) which express three copies of a wild-type human peripheral myelin protein 22 (PMP22) gene (Verhamme, Camiel, et al. Journal of Neuropathology & Experimental Neurology 70.5 (2011): 386-398). Mice were housed in macrolon cages with filter hoods, in a continuously air-filtered room, thereby avoiding contamination. During experiments, paired animals were caged at a constant temperature with a day/night cycle of 12/12 hours. Animals were fed (control tap water and nutrition) ad libitum. Animal protocol is approved by the Animal Studies Committee of Languedoc Roussillon. This protocol and the laboratory procedures comply with French legislation, which implements the European Directives (Reference Number: D3417223, APAFIS #23920-2020020320279696 v3). Animal health was followed on a daily basis to ensure that only animals in good health enter the testing procedures and follow up the study.
Animals were split in 3 groups (wild-type control (subcutaneous 0.9% NaCl), CMT1A-vehicle (subcutaneous 0.9% NaCl), CMT1A-human alpha-1 antitrypsin (subcutaneous, twice daily, 50 mg/kg per injection)) of 3 mice each (3 weeks old males of 18±2.5 g at the beginning of study) and all went through the following protocol after 7 days of acclimation on site.
On the first and last day of treatment, the neuromuscular performance of animals was tested with a rotarod test, grip test and sciatic nerve electrophysiology test. After the last treatment at 8 weeks, these tests were repeated, and animals were sacrificed and the left sciatic nerve was sampled for histological evaluation of the number and size of […].
Sciatic nerve electrophysiology (EMG) provides sensitive and quantitative approach to measure compound muscle action potential and nerve conduction velocity amplitude in the animals and was done by stimulation of the sciatic nerve. Similar compound muscle action potential (CMAP) amplitudes were observed between groups at the baseline (6 weeks old).

[4] = baseline (6 weeks old), CMT + hAAT, individual animal

alpha1-antitrypsin (AAT) protein
IC50 [1]: 15.3 µM
rotarod latency to fall vs CMT mice not treated with AAT ([2]; CMT mice, AAT 90 mg/kg sc twice a day, 8 to 10 weeks of age, end of treatment): significant increase
Rotarod latency, group Mean ([2]; baseline (6 weeks old), CMT + hAAT, 8 animals): 71.46 s
Rotarod latency, Mean/animal [2, 4]: 53.43 s and 52.98 s and 66.74 s and 56.96 s and 66.75 s and 65.56 s and 106.66 s and 102.61 s
Rotarod latency, set 1 [2, 4]: 53.47 s and 57.35 s and 69.94 s and 62.11 s and 65.03 s and 66.86 s and 110.28 s and 93.16 s
Rotarod latency, set 2 [2, 4]: 57.11 s and 51.61 s and 67.40 s and 54.79 s and 72.92 s and 68.48 s and 109.55 s and 105.36 s
Rotarod latency, set 3 [2, 4]: 49.72 s and 49.96 s and 62.87 s and 53.98 s and 62.30 s and 61.35 s and 100.14 s and 109.32 s
NCV compared to the vehicle treated group ([3]; CMT1A + AAT treated group, 8 weeks old): increase
Compound muscle action potential (Mean ± SEM) ([3]; 6 weeks old): 6.47 ± 0.30 mV
Nerve conduction velocity (Mean ± SEM) ([3]; 6 weeks old): 24.91 ± 4.13 m/s
Nerve conduction velocity (Mean ± SEM) ([3]; 8 weeks old): 20.89 ± 1.63 m/s
Compound muscle action potential (Mean ± SEM) ([3]; 8 weeks old, p < 0.05 vs CMT1A + vehicle): 5.63 ± 1.18 mV
Amplitude, MEAN ([3]; 6 weeks old (baseline)): 6.471 mV
Amplitude, individual mice ([3]; 6 weeks old (baseline)): 7.030 mV and 6.025 mV and 6.359 mV
Conduction velocity, MEAN ([3]; 6 weeks old (baseline)): 24.909 m/s
Conduction velocity, individual mice ([3]; 6 weeks old (baseline)): 31.277 m/s and 17.182 m/s and 26.268 m/s
T1 distal, individual mice ([3]; 6 weeks old (baseline)): 0.00202 s and 0.00207 s and 0.0016 s
T2 proximal, individual mice ([3]; 6 weeks old (baseline)): 0.0025 s and 0.00295 s and 0.00217 s
Amplitude, MEAN ([3]; 8 weeks old): 5.627 mV
Amplitude, individual mice ([3]; 8 weeks old): 3.799 mV and 5.260 mV and 7.822 mV
Conduction velocity, MEAN ([3]; 8 weeks old): 20.892 m/s
Conduction velocity, individual mice ([3]; 8 weeks old): 23.904 m/s and 18.310 m/s and 20.464 m/s
T1 distal, individual mice ([3]; 8 weeks old): 0.00251 s and 0.00236 s and 0.00228 s
T2 proximal, individual mice ([3]; 8 weeks old): 0.00313 s and 0.00318 s and 0.00302 s
EMG parameters compared to the control ([3]; CMT1A mice treated with AAT, 8 weeks old): improvement

Source: patent US20260028390A1, “ALPHA1-ANTITRYPSIN FOR USE IN THE TREATMENT OF DISEASES OR DISORDERS OF THE NERVOUS SYSTEM SUCH AS CHRONIC INFLAMMATORY DEMYELINATING POLYNEUROPATHY” (Ageronix SA, priority 2022, published 2026)
